Experimental data reported in patent US20100248265A1, “COMPOSITIONS AND METHODS FOR DIAGNOSIS AND TREATMENT OF CANCER” (The Salk Institute for Biological Studies, priority 2009, published 2010).
Blank lines part the entries; values can stand above or below the compound they belong to.

Key:
mTOR [1] = target: mTOR (Homo sapiens, UniProt P42345); experiment: Western blot for mTOR autophosphorylation at S2481 in cells treated with mTOR kinase inhibitors; type: cell-based; settings: actively growing Hela and MDA-MB-468 cells; 1 h at 37° C.
Procedure: (§5) Whole cell lysates were then analyzed for mTOR phosphorylation at S2481. Phosphorylation of the mTORC1 substrate S6K at T389 and the mTORC2 substrate Akt at S473 were analyzed as controls.

mTOR [2] = experiment: as above; type: cell-based; settings: actively growing MEFs, U2OS, Hela and MDA-MB-468 cells; 1 h at 37° C.
Procedure: as §5

S6K = experiment: Western blot for mTORC1 substrate S6K phosphorylated at T389 in cells treated with mTOR kinase inhibitors; settings: 1 h at 37° C.
Procedure: as §5

Akt = experiment: Western blot for mTORC2 substrate Akt phosphorylated at S473 in cells treated with mTOR kinase inhibitors; settings: 1 h at 37° C.
Procedure: as §5

[3] = test system: ER positive breast cancer; settings: ER positive breast cancer patients; randomized trial, endocrine therapy plus everolimus; cited from earlier work
breast cancer = settings: unselected breast cancer patients; cited from earlier work
mTOR [4] = target: T1, mTOR (Homo sapiens, UniProt P42345+P62942); experiment: Immunoblot of whole cell lysates for mTOR phosphorylated on S2448 (rapamycin / insulin treatment); type: cell-based; settings: serum-starved HEK293 cells; 200 nM insulin for 5 min.
T1 construct: specifically deplete endogenous mTOR, Rictor or Raptor were expressed in HEK293 cells; endogenous in cells
Excerpt: (§1) Antibodies and reagents. The following antibodies were purchased from Cell Signaling Technology: phospho-mTOR(S2448 and S2481), Akt and phospho-Akt (S473) rabbit polyclonal antibodies. Phospho-S6K (T389) and mTOR (mTab1) rabbit polyclonal antibodies were purchased from Millipore. Rictor and mSin1 rabbit polyclonal antibodies were purchased from Bethyl Laboratories. The anti-Raptor rabbit antiserum was developed with the antibody service from Invitrogen utilizing the peptide […], amino acid sequence 918-933 of human Raptor. Rapamycin was purchased from Sigma. Insulin and IGF-1 were purchased from Research Diagnostics, Inc.
(§2) Cell culture, cell lysis and immunoprecipitation. […]
(§3) Cells were rinsed 2× with cold PBS and lysed in 1 ml 50 mM Hepes pH 7.5, 150 mM NaCl, 10% glycerol, 0.3% Chaps (v/v), 1.5 mM MgCl2, 1 mM EGTA, 100 mM NaF, 500 μM sodium orthovanadate, 10 μg/ml aprotinin, and 10 μg/ml leupeptin per 10 cm tissue culture dish. […] Protein concentrations were determined using the Bio-Rad DC Protein Assay kit according to manufacturer's protocol. […]
(§4) Because S2481 phosphorylation requires intact mTORC2, we tested whether prolonged rapamycin treatment had any effect on S2481 phosphorylation. Whole cell lysates from control and insulin-stimulated cells treated with 100 nM rapamycin for either one or 24 hr were analyzed for phosphorylation of mTOR on S2448 and S2481.

mTOR [5] = experiment: Immunoblot of whole cell lysates for mTOR phosphorylated on S2481 (rapamycin / insulin treatment); type: cell-based; settings: serum-starved HEK293 cells; 200 nM insulin for 5 min.
Excerpt: Antibodies and reagents. The following antibodies were purchased from Cell Signaling Technology: phospho-mTOR(S2448 and S2481), Akt and phospho-Akt (S473) rabbit polyclonal antibodies. Phospho-S6K (T389) and mTOR (mTab1) rabbit polyclonal antibodies were purchased from Millipore. Rictor and mSin1 rabbit polyclonal antibodies were purchased from Bethyl Laboratories. The anti-Raptor rabbit antiserum was developed with the antibody service from Invitrogen utilizing the peptide [sequence], amino acid sequence 918-933 of human Raptor. Rapamycin was purchased from Sigma. Insulin and IGF-1 were purchased from Research Diagnostics, Inc.
Lentivirus-mediated gene knockdown. […]
Virus-containing supernatants were collected 48 hr. after transfection. Cells were infected twice in the presence of 1 μg/ml polybrene, selected for puromycin resistance and analyzed 48-72 hr. post-infection. […]

mTORC2 = target: T2, mTORC2 (Homo sapiens, UniProt P42345+P62942); experiment: Rictor (and Raptor) immunoprecipitates analyzed by immunoblotting for bound mTOR (mTORC2 assembly); type: cell-based; settings: serum-starved HEK293 cells; 200 nM insulin for 5 min.
T2 construct: endogenous in cells; host or cells: HEK293, U2OS, MDA-MB-231, MDA-MB-468, SKBR3, A549
Excerpt: as §1, §2, §3
as §4, with “S2481. […]” for “S2481.”

[6] = actively growing Hela and MDA-MB-468 cells
[7] = actively growing MEFs, U2OS, Hela and MDA-MB-468 cells

- mTOR autophosphorylation at S2481 (mTOR [1]): reduction
Compound: COc1ccc2c(c1OC)N=C(NC(=O)c1cccnc1)N1CCN=C21 [PIK-90]

Compound: CC(C)n1nc(-c2cc3cc(O)ccc3[nH]2)c2c(N)ncnc21 [PP242]
- mTOR autophosphorylation at S2481 (mTOR [2]): abolished
- phosphorylation of mTORC1 substrate S6K at T389 (S6K; [6]): inhibited
- phosphorylation of mTORC1 substrate S6K at T389 (S6K; [7]): inhibited
- phosphorylation of mTORC2 substrate Akt at S473 (Akt; [6]): inhibited
- phosphorylation of mTORC2 substrate Akt at S473 (Akt; [7]): inhibited

Compound: CCC(=O)N1CCN(c2ccc(-n3c(=O)ccc4cnc5ccc(-c6cnc7ccccc7c6)cc5c43)cc2C(F)(F)F)CC1 [Torin1]
- mTOR autophosphorylation at S2481 (mTOR [2]): abolished
- phosphorylation of mTORC1 substrate S6K at T389 (S6K; [6]): inhibited
- phosphorylation of mTORC1 substrate S6K at T389 (S6K; [7]): inhibited
- phosphorylation of mTORC2 substrate Akt at S473 (Akt; [6]): inhibited
- phosphorylation of mTORC2 substrate Akt at S473 (Akt; [7]): inhibited

Compound: CO[C@H]1C[C@@H]2CC[C@@H](C)[C@@](O)(O2)C(=O)C(=O)N2CCCC[C@H]2C(=O)O[C@H]([C@H](C)C[C@@H]2CC[C@@H](OCCO)[C@H](OC)C2)CC(=O)[C@H](C)/C=C(\C)[C@@H](O)[C@@H](OC)C(=O)[C@H](C)C[C@H](C)/C=C/C=C/C=C/1C [everolimus]
- effect on efficacy of endocrine therapy [3]: significantly increases the efficacy of endocrine therapy

Compound: CO[C@H]1C[C@@H]2CC[C@@H](C)[C@@](O)(O2)C(=O)C(=O)N2CCCC[C@H]2C(=O)O[C@H]([C@H](C)C[C@@H]2CC[C@@H](OC(=O)C(C)(CO)CO)[C@H](OC)C2)CC(=O)[C@H](C)/C=C(\C)[C@@H](O)[C@@H](OC)C(=O)[C@H](C)C[C@H](C)/C=C/C=C/C=C/1C [temsirolimus]
- patients who responded to treatment (breast cancer): 10%

- S2448 phosphorylation of mTOR (mTOR [4]): increased
- amount of mTOR associated with either Raptor or Rictor (mTORC2): did not change
Compound: insulin: growth factor used to stimulate serum-starved cells; purchased from Research Diagnostics, Inc.
- S2481 phosphorylation of mTOR (mTOR [5]): increased
